One data set addresses T1, EphA2 (UniProt Ref: P29317) (Homo sapiens, UniProt P29317).
T1 construct: purchased Reaction Biology
The data set can be described thus: EphA2 assay (Reaction Biology HotSpot radioactive kinase assay). Type of data set: biochemical. The following applies: ATP 10 μM; read-out: EphA2 potency IC50. The method, boiled down: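 Radiometric HotSpot assay measuring ^33P incorporation from [^33P]-γ-ATP into poly[Glu:Tyr] (4:1) (0.2 mg/mL) with 10 μM ATP. IC50 from serial 1/3 dilutions starting at 10 or 3 μM.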

Data set [1] in a line: Pharmacokinetics in mice (exposure, AUC). The data set is classed as in vivo. To be noted: male, CD1, plasma; mouse, 30 mg/kg, po. As to the method:
This study was performed with 42 naïve male CD1 mice (18-20 g, 4-5 weeks old). Mice are obtained from Janvier, Le Genest St Isle, France.
A controlled environment was maintained in the room with optimal conditions of approximately 15 air changes per hour, a temperature of 22±2 C, a relative humidity of 30-70% and a 12 hour light/12 hour dark cycle (nightlight during the night period).
Pelleted diet for rodents (UAR A04C-10) was used and was provided ad libitum. Before p.o. dosing, the animals are deprived of food for at least 12 hours before compound administration and 4 hours after administration. All animals had free access to tap water.
[…] The i.v. bolus administration is given with a dose volume of 5 mL/kg and the oral administration is given with a dose volume of 10 mL/kg. Actual dose volumes are based on the mean of 10 body weights.
The vehicle used to formulate compounds for oral administration is methylcellulose in water (0.5% in water)
From all animals approximately 500 μL blood samples are collected by intra-cardiac puncture under gaseous anesthesia and placed into tubes containing Li-heparin as anticoagulant. Blood samples are collected at various time points (i.v.: 0.05, 0.25, 0.5, 1, 3, 5 and 8 hours after dosing; p.o.: 0.25, 0.5, 1, 3, 5, 8 and 24 hours after dosing). Each mouse is sampled once and euthanized.
Blood is kept on ice. Within 1 hour after sampling, blood is centrifuged at 5,000 rpm for 10 min at 4° C. Immediately after centrifugation, the resulting plasma samples are collected into polypropylene tubes and are kept frozen at −20° C. pending bioanalysis.
Plasma samples are assayed by LC-MS/MS. Plasma proteins are precipitated with an excess of methanol containing the internal standard and the corresponding supernatant is injected on a C18 column. Analytes are eluted out the HPLC system by increasing the percentage of the organic mobile phase. An API4000 mass spectrometer (AB Sciex™) is used for the detection and quantification.
Pharmacokinetic parameters are calculated by non-compartmental analysis using WinNonlin® software (Pharsight, version 5.2).

In another data set the target is T2, EphA4 (UniProt Ref: P54764) (Homo sapiens, UniProt P54764).
T2 construct: purchased Reaction Biology
Description: EphA4 assay (Reaction Biology HotSpot radioactive kinase assay). Type of data set: biochemical. To be noted: EphA4 potency; ATP 10 μM. As to the method:
Inhibition of EphA4 (UniProt Ref: P54764) by a test compound is determined by a commercially available Reaction Biology proprietary nanoliter radioactive HotSpot^SM assay (Reaction Biology, One great valley parkway, Suite 2, Malvern Pa., 19355, USA). The principle of the assay consists of the measurement of incorporated ^33P into poly[Glu:Tyr] (4:1) (0.2 mg/mL) when the substrate is phosphorylated by the enzyme using [^33P]-γ-ATP and ATP (10 μM).
(§1) To determine the IC50, a serial dilution of compound is tested starting from 10 or 3 μM (highest dilution) with a 1/3 dilution.

For a further data set, the target named is T3, EphB4 (UniProt Ref: Q541P7) (Homo sapiens, UniProt P54760).
T3 construct: purchased Reaction Biology
T3 sequence (P54760 16-987): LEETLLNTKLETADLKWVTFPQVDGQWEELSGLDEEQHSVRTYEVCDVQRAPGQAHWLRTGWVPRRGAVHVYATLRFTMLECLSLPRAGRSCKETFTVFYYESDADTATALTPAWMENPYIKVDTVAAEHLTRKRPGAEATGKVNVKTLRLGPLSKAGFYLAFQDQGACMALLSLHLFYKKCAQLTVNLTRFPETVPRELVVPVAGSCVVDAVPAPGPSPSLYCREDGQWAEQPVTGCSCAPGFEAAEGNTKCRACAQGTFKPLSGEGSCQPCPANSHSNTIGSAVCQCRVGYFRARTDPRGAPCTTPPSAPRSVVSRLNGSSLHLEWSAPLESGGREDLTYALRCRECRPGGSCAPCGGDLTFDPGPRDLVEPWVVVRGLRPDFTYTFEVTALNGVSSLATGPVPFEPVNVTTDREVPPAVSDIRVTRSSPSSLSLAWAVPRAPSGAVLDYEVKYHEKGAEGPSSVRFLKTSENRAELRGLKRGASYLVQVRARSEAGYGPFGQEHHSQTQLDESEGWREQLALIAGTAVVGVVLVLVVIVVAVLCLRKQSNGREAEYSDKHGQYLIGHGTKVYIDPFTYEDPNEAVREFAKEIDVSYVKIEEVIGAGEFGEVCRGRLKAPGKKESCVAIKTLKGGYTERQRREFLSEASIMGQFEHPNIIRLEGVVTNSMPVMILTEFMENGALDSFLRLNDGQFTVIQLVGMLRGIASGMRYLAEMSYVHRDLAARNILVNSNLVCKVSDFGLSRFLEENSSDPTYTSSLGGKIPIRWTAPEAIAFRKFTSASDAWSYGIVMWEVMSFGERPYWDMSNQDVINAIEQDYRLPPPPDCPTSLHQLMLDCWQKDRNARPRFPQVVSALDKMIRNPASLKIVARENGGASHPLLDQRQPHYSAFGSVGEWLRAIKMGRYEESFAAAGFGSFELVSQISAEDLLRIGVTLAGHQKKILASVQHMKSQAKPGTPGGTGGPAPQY
The data set can be described thus: EphB4 assay (Reaction Biology HotSpot radioactive kinase assay). Type of data set: biochemical. To be noted: ATP 10 μM; read-out: EphB4 potency IC50. As to the method: Inhibition of EphB4 (UniProt Ref: Q541P7) by a test compound is determined by a commercially available Reaction Biology proprietary nanoliter radioactive HotSpot^SM assay (Reaction Biology, One great valley parkway, Suite 2, Malvern Pa., 19355, USA). The principle of the assay consists of the measurement of incorporated ^33P into poly[Glu:Tyr] (4:1) (0.2 mg/mL) when the substrate is phosphorylated by the enzyme using [^33P]-γ-ATP and ATP (10 μM).
as §1

Another data set relates to MDA-MB-231 cells. Description: Mouse xenograft model of human triple negative breast cancer (MDA-MB-231), tumorous growth inhibition. The following applies: day 26, 20 mg/kg, ip, 3x/ week. Type of data set: in vivo, Female BALB/c Mice. As to the method:
Animals (Female BALB/c Mice, Harlan, 51930, 18-20 g) are provided with filtered tap water and standard chow ad libitum and maintained at 22±2° C. in 55±10% humidity on a 12 h light/dark cycle.
Paclitaxel used as a positive control is formulated by 1/3 dilution of commercial solution (Fresenius kabi, 871WF014/4) in saline.
The test compounds for po administration are formulated in 0.5% methylcellulose (VWR, ref AX021233).
MDA-MB-231 cell line is obtained from the ATCC collection (ref HTB-26). The cells are then cultured in RPMI 1640 medium supplemented with […] (Gibco 15140-148) and 1% (v/v) L-Glutamine 200 mM (Gibco 25030-024) at 37° C. in a 5% CO2 incubator.
5 million MDA-MB-231 cells/mice in 0.1 mL of 50% Matrigel (BD biosciences, LDEV free 256235)+50% D-PBS 1× (Gibco 14190-086) are injected by subcutaneous route on the upper back of 120 mice. Prior to implantation, mice are anesthetized by intra-peritoneal injection with a 0.1 mL/10 g dose of anaesthetic solution (18 mL NaCl, 0.9%+0.5 mL xylazine, +1.5 mL ketamine. […]
Body weight, and tumor growth is recorded twice a week during the course of treatment.
After 26 days the treatment is stopped, in each group half of the mice are euthanized for tissue collection, and the other half is kept for a further 7 days, during which period body weight and tumour sized are measured.
In sacrificed mice, blood and tumours are collected, analysed, and the effect of the test compounds is compared with controls (vehicle and paclitaxel).
The values were obtained using the following calculations
Relative Tumor Volume (RTV):
Tumor Growth Inhibition (TGI) TGI=1−T/C
Background: Xenograft models place foreign cells or tissue in a host animal.

T1 sequence (P29317 24-976): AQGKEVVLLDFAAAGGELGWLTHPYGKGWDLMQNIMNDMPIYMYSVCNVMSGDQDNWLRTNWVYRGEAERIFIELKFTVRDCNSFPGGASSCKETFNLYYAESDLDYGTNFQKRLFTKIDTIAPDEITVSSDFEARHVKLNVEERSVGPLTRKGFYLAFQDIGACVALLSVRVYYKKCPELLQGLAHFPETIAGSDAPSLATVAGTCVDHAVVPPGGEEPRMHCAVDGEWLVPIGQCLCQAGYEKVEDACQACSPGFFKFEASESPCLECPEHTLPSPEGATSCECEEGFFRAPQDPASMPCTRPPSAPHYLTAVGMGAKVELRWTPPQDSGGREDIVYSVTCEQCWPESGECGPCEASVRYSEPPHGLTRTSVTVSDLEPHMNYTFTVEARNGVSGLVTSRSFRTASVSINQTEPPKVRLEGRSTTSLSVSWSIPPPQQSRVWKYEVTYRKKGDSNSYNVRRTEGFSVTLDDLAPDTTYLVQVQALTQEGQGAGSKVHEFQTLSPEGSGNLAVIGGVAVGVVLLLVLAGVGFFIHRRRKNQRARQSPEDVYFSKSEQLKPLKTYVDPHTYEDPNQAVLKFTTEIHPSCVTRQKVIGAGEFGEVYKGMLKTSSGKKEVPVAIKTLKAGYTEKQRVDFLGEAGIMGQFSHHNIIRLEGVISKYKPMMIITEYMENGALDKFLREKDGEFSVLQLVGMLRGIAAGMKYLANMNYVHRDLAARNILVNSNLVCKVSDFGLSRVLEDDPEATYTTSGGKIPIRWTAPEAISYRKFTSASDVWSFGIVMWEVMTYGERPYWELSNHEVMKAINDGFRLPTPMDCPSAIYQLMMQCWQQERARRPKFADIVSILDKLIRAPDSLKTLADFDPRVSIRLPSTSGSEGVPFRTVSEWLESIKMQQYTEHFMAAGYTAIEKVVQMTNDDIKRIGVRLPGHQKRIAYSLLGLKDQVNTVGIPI
T2 sequence (P54764 20-986): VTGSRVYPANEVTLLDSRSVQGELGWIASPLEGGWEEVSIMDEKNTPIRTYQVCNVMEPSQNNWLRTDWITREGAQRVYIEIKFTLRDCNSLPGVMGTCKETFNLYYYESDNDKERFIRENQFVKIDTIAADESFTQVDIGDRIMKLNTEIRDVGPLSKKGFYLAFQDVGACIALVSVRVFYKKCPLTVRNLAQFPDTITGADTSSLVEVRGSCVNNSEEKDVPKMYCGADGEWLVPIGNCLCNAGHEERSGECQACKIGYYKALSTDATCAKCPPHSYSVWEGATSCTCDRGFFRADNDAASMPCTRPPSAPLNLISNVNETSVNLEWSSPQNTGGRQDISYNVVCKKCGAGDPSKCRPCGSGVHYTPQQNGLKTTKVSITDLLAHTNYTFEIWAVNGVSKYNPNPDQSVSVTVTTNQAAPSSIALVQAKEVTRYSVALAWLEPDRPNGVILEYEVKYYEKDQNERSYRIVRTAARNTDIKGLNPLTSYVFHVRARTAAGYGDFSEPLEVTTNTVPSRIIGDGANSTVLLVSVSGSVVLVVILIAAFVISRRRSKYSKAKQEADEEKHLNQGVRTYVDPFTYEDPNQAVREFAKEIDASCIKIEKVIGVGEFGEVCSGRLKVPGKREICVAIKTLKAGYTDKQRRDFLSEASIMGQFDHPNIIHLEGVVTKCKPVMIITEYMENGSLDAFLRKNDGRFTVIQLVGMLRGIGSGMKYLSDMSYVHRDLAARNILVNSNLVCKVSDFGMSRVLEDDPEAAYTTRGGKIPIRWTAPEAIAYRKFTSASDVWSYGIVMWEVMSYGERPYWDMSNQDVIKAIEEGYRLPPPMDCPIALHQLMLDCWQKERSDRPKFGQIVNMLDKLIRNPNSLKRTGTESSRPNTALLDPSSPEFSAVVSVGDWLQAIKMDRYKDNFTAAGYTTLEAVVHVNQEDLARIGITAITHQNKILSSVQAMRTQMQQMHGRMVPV

Turning to `COc1cc(OC)cc(C(=O)Nc2ccc(C)c(-c3ccc4c([C@H](C)O)n[nH]c4n3)c2)c1` [Compound 47, N-{3-[3-((S)-1-Hydroxy-ethyl)-1H-pyrazolo[3,4-b]pyridin-6-yl]-4-methyl-phenyl}-3,5-dimethoxy-benzamide], the IC50 (usually the concentration that gives 50% inhibition) fell in the range of 0.01 to 25 nM on EphA2, 50 to 100 nM on EphA4 and 0.01 to 25 nM at EphB4. In data set [1], the AUC (in general, the area under the concentration-time curve, a measure of exposure) was found to be 39000 ng·h/mL.
On to `CC(=O)O[C@H]1C(=O)[C@@]2(C)[C@H]([C@H](OC(=O)c3ccccc3)[C@]3(O)C[C@H](OC(=O)[C@H](O)[C@@H](NC(=O)c4ccccc4)c4ccccc4)C(C)=C1C3(C)C)[C@]1(OC(C)=O)CO[C@@H]1C[C@@H]2O` [Paclitaxel, paclitaxel], for which, in the data set with MDA-MB-231 cells, the “RTV (Relative Tumor Volume)” value is on record as 2.06, the “T/C (Tumour Vs Control)” value was determined as 24.31% and the “TGI (Tumor Growth Inhibition)” value is 75.69%.

These data come from US9062051B2, “Compounds and pharmaceutical compositions thereof for the treatment of proliferative disorders” (GALAPAGOS NV, priority 2014, dated 2015).
